Test results reported in the supplement of paper PMC10307832.

Legend:
Test in all cases: relative viability (nuclei count vs DMSO), 5 days (fraction); higher = more cells survive
Wnt-C59 + AZD7762 = compound: CC1=NC=CC(=C1)C2=CC=C(C=C2)CC(=O)NC3=CC=C(C=C3)C4=CN=CC=C4 [Wnt-C59] + NC(=O)Nc1cc(-c2cccc(F)c2)sc1C(=O)N[C@H]1CCCNC1 [AZD7762] (partner 0.2 µM)
Method in brief: (§1)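 Nuclei were stained with Hoechst during a one-step fixation (final 0.05% Triton X-100, 1% formaldehyde, 1 ug/ml Hoechst) carried out 5 days after dosing, then counted on 4× images. The cells, lung cancer lines in 1536-well plates, had been dosed by pin tool the day after seeding with one drug alone or a fixed anchor-drug dose plus five library-drug doses (not always all listed) in √10 steps. Relative viability is the nuclei count in treated wells divided by that in vehicle wells, and each value is the median of duplicate plates.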

Wnt-C59 + Lapatinib = compound: CC1=NC=CC(=C1)C2=CC=C(C=C2)CC(=O)NC3=CC=C(C=C3)C4=CN=CC=C4 [Wnt-C59] + CS(=O)(=O)CCNCc1ccc(-c2ccc3ncnc(Nc4ccc(OCc5cccc(F)c5)c(Cl)c4)c3c2)o1 [Lapatinib] (partner 2 µM)
Method in brief: as §1

Wnt-C59 + Decitabine = compound: CC1=NC=CC(=C1)C2=CC=C(C=C2)CC(=O)NC3=CC=C(C=C3)C4=CN=CC=C4 [Wnt-C59] + Nc1ncn([C@H]2C[C@H](O)[C@@H](CO)O2)c(=O)n1 [Decitabine] (partner 2 µM)
Method in brief: as §1

Lapatinib + Navitoclax = compound: CS(=O)(=O)CCNCc1ccc(-c2ccc3ncnc(Nc4ccc(OCc5cccc(F)c5)c(Cl)c4)c3c2)o1 [Lapatinib] + CC1(C)CCC(c2ccc(Cl)cc2)=C(CN2CCN(c3ccc(C(=O)NS(=O)(=O)c4ccc(N[C@H](CCN5CCOCC5)CSc5ccccc5)c(S(=O)(=O)C(F)(F)F)c4)cc3)CC2)C1 [Navitoclax] (partner 0.5 µM)
Method in brief: as §1

Cell Line | relative viability (Wnt-C59 + AZD7762; first compound 0.001 µM) | relative viability (Wnt-C59 + AZD7762; first compound 0.01 µM) | relative viability (Wnt-C59 + AZD7762; first compound 0.03162 µM) | relative viability (Wnt-C59 + AZD7762; first compound 0.1 µM) | relative viability (Wnt-C59 + Lapatinib; first compound 0.001 µM) | relative viability (Wnt-C59 + Lapatinib; first compound 0.01 µM) | relative viability (Wnt-C59 + Lapatinib; first compound 0.03162 µM) | relative viability (Wnt-C59 + Lapatinib; first compound 0.1 µM) | relative viability (Wnt-C59 + Decitabine; first compound 0.001 µM) | relative viability (Wnt-C59 + Decitabine; first compound 0.01 µM) | relative viability (Wnt-C59 + Decitabine; first compound 0.03162 µM) | relative viability (Wnt-C59 + Decitabine; first compound 0.1 µM) | relative viability (Lapatinib + Navitoclax; first compound 0.02 µM) | relative viability (Lapatinib + Navitoclax; first compound 0.06325 µM) | relative viability (Lapatinib + Navitoclax; first compound 0.2 µM) | relative viability (Lapatinib + Navitoclax; first compound 0.6325 µM) | relative viability (Lapatinib + Navitoclax; first compound 2 µM)
NCI-H1437 | 1.14 | 1.16 | 1.18 | 1.08 | 0.851 | 0.8 | 0.89 | 0.828 | 0.584 | 0.562 | 0.559 | 0.614 | 1.09 | 1.08 | 1.11 | 1.03 | 1
BEN | 0.823 | 0.623 | 0.761 | 0.856 | 0.825 | 0.804 | 0.736 | 0.641 | 0.667 | 0.741 | 0.807 | 0.782 | 0.0643 | 0.0706 | 0.061 | 0.0751 | 0.0557
NCI-H1666 | 0.95 | 0.819 | 0.82 | 0.857 | 0.675 | 0.516 | 0.659 | 0.75 | 0.753 | 0.73 | 0.732 | 0.767 | 0.794 | 0.724 | 0.737 | 0.464 | 0.217
LOU-NH91 | 0.765 | 0.67 | 0.778 | 0.761 | 0.76 | 0.709 | 0.768 | 0.771 | 0.873 | 0.838 | 0.83 | 0.822 | 0.555 | 0.558 | 0.502 | 0.541 | 0.324
NCI-H1355 | 0.81 | 0.753 | 0.753 | 0.766 | 1.04 | 0.922 | 1.05 | 0.842 | 0.361 | 0.354 | 0.349 | 0.337 |  | 0.861 | 0.824 | 0.906 | 0.498
HCC-366 | 0.271 | 0.247 | 0.286 | 0.322 | 1.16 | 0.999 | 1.07 | 0.976 | 0.317 | 0.427 | 0.342 | 0.387 |  | 1.02 | 1.08 | 1.03 | 0.914
LK-2 | 0.417 | 0.407 | 0.486 | 0.461 | 0.853 | 0.913 | 0.799 | 0.864 | 0.319 | 0.329 | 0.319 | 0.323 | 0.908 |  | 0.84 | 0.88 | 0.905
PC-14 | 0.414 | 0.367 | 0.351 | 0.457 | 0.311 | 0.324 | 0.328 | 0.316 | 0.246 | 0.283 | 0.223 | 0.243 | 0.956 | 0.991 | 0.958 | 0.985 | 0.839
NCI-H2087 | 1.43 | 1.37 | 1.28 | 1.2 | 1.01 | 1.04 | 1.08 | 0.908 | 0.245 | 0.28 | 0.281 | 0.336 | 0.932 | 0.96 | 1.06 | 1 | 0.962
